Three compounds from publication PMC6156363, “The Modulatory Role of CYP3A4 in Dictamnine-Induced Hepatotoxicity” (Frontiers in Pharmacology, 2018) can be followed below.

Structures are written as SMILES. Values joined by “and” are separate entries in the source; they are usually repeats but may differ in a detail not shown here. Identical values can stand only once.

Data set [1] relates to ICR mice. The data set can be described thus: Liver injury in mice, group B (KTZ inhibition): liver/body weight, ALT, AST, H&E. It counts as in vivo. To be noted: individual mouse, liver H&E. The protocol: (§1) Male adult ICR mice (20 ± 2 g) were supplied by the Model Animal Research Center of Nanjing University (Nanjing, China). All experiments and animal care were conducted in accordance with the Provision and General Recommendation of Chinese Experimental Animals Administration Legislation and were approved by the Science and Technology Department of Jiangsu Province [license number: SYXK (SU) 2016-0011]. The mice were housed in a controlled temperature and humidity of 22 ± 2°C and 55 ± 5%, respectively, and maintained on a 12 h light/dark cycle with free access to food and water. Mice were fastened for 12 h and free to water before treatment.
(§2) Mice were randomly assigned into two groups for different treatment. The protocol was conducted as previously described with minor modification ([Iida et al., 2015]; [Li W. et al., 2016]). […] Blood and liver tissues were collected in 24 h following treatment. All the livers were quickly removed and the left lateral liver lobes were used for histopathological examinations.
The collected blood samples were allowed to clot at room temperature, followed by centrifugation at 4°C, 1,000 × g for 10 min. The resulting sera were immediately sent for alanine transaminase (ALT) and aspartate aminotransferase (AST) assays to the laboratory in Jiangsu Province Hospital of Traditional Chinese and Western Medicine (Nanjing, China) on ice. The testing laboratory was authenticated with ISO15189 and the assay was performed in a Roche Cobas 8000 (ISE/701/701/502) automatic biochemical analyzer. Liver tissues were immediately fixed in 4% paraformaldehyde for at least 24 h, then paraffin-processed, and sectioned into 3-μm thick slices. The sections were stained with hematoxylin and eosin (H&E), and finally evaluated by a pathologist using an optical microscope.

In data set [2] the test system is CYP3A11. Description: Hepatic CYP3A11 expression in mice by Q-PCR and Western blot. The format is in vivo, mouse. As to conditions: mice liver, KTZ 75 mg/kg i.p., vs control. A general note: A western blot detects proteins with antibodies after separation by electrophoresis.
Data set [3] deals with primary human hepatocytes (PHH). The data set can be described thus: MTT cytotoxicity in primary human hepatocytes, with or without KTZ or RIF pre-incubation. To be noted: 1 mM DCF. It counts as cell-based. The protocol: All of the compounds were dissolved in DMSO with the final concentration of DMSO was less than 0.2% in the incubation system. The MTT assay was employed and the optical density (OD) value was measured at 490 nm with a microplate reader (BioTek Instruments, Winooski, VT, United States).

In data set [4] the test system is CYP3A4 OE HepG2 cells. The data set can be described thus: MTT cytotoxicity in stable CYP3A4 over-expressed HepG2 cells. As to conditions: DCF 400–2000 μM. The format is cell-based, human. The protocol:
(§3) Cells were allowed to grow in the selection medium for 4 weeks, at which time individual clonal expansions (clones) were visible. Each clone was transferred and tested for enzymatic activity by a quantitative polymerase chain reaction (Q-PCR), western blot analysis and determining hydroxylation of testosterone.
(§4) The neutral red assay was performed to assess cell viability of NIH3T3 cells. […] After incubation, the neutral red reagent was added following the manufacturer’s instruction. The OD value was detected at 570 nm. The WT and CYP3A4 OE HepG2 and L02 were treated in the same manner as NIH3T3 cells, and cell viability was measured by MTT assay. Cell viability was calculated with the following equation (Eq. 1). OD value is presented as the mean ± SD from three independent replicate experiments.
(§5) Cell viability (%) =[…]

The subject of data set [5] is CYP3A4 OE L02 cells. The data set can be described thus: MTT cytotoxicity in stable CYP3A4 over-expressed L02 cells. As to conditions: DCF 400–2000 μM. It counts as cell-based, human. The protocol: as §3, §4, §5
The subject of data set [6] is ICR mice. Description: Liver injury in mice, group A (DEX induction): liver/body weight, ALT, AST, H&E. As to conditions: individual mouse, liver H&E. It counts as in vivo. The procedure:
as §1, §2
The collected blood samples were allowed to clot at room temperature, followed by centrifugation at 4°C, 1,000 × g for 10 min. […] The sections were stained with hematoxylin and eosin (H&E), and finally evaluated by a pathologist using an optical microscope.

With `CC(=O)N1CCN(c2ccc(OCC3COC(Cn4ccnc4)(c4ccc(Cl)cc4Cl)O3)cc2)CC1` (stereo not shown) [KTZ, ketoconazole], in data set [1], the “Inflammatory cells (histopathologic score)” value was determined as 0.5; the “Scores (histopathologic, total)” value is 0 and 0.5; the “hepatocytes Degeneration (histopathologic score)” value was 0.5. The “decrease in CYP3A11 expression” value in data set [2] is “about 20%”.

As to `O=C(O)Cc1ccccc1Nc1c(Cl)cccc1Cl` [DCF, diclofenac sodium], the “cell viability of PHH in the presence of KTZ” value in data set [3] (24 h, KTZ 10 μM) is “remarkably increased”. Further, the “cell viability of PHH pre-incubated with RIF” value in data set [3] (RIF 20 μM) was “significantly decreased”. The “cell viability in CYP3A4 OE HepG2 cells compared with WT cells” value in data set [4] was “greatly decreased”. Also, the “cell viability in CYP3A4 OE L02 cells compared with WT cells” value in data set [5] was “greatly decreased”.

Turning to `C[C@@H]1C[C@H]2[C@@H]3CCC4=CC(=O)C=C[C@]4(C)[C@@]3(F)[C@@H](O)C[C@]2(C)[C@@]1(O)C(=O)CO` [DEX, Dexamethasone], in data set [6], the “Congestion (histopathologic score)” value turned out to be 1; the “Scores (histopathologic, total)” value was 0 and 1.
